{"source": "patent US9809563B2", "about": "(GIFU University, priority 2014, dated 2017)", "key": {"[1]": {"conditions": "male, Crl:CD (SD), rat, in vivo, po, 1 mg/kg"}, "[2]": {"conditions": "rat, in vivo"}}, "note": "Structures can show the parent of a compound that is named as a salt. Where two headings read alike, the source gives them in different places."}
{"compound": "O=C(CN1CCCC1)Nc1ccc(C(c2ccc(NC(=O)CN3CCCC3)cc2)C2CCCCC2)cc1", "note": "[maleic acid salt, N,N′-[(cyclohexylmethylene)di-4,1-phenylene]bis[2-(1-pyrrolidinyl)acetamide] maleate]", "values": [{"measurement": "tmax Time required to reach maximum radioactivity concentration", "setting": "[1]", "value": 4.0, "unit": "h"}, {"measurement": "Concentrations of radioactivity in the cerebrum and cerebellum compared with blood", "setting": "[2]", "value": "higher than those in the blood"}, {"measurement": "Radioactivity in tissues relative to plasma", "setting": "[2]", "value": 100, "unit": "fold"}, {"measurement": "Blood concentration of radioactivity/plasma concentration of radioactivity (RB)", "setting": "[2]; iv, 1 mg/kg", "value": 10.18}, {"measurement": "Distribution to blood cells (T)", "setting": "[2]; iv, 1 mg/kg", "value": 93.7, "unit": "%"}, {"measurement": "Radioactivity concentration Blood (Cb)", "setting": "[2]; iv, 1 mg/kg", "value": 39.7, "unit": "ng eq./mL"}, {"measurement": "Radioactivity concentration Plasma (Cp)", "setting": "[2]; iv, 1 mg/kg", "value": 3.9, "unit": "ng eq./mL"}, {"measurement": "Blood concentration of radioactivity/plasma concentration of radioactivity (RB)", "setting": "[2]; iv, 10 mg/kg", "value": 19.52}, {"measurement": "Distribution to blood cells (T)", "setting": "[2]; iv, 10 mg/kg", "value": 96.5, "unit": "%"}, {"measurement": "Radioactivity concentration Blood (Cb)", "setting": "[2]; iv, 10 mg/kg", "value": 407.9, "unit": "ng eq./mL"}, {"measurement": "Radioactivity concentration Plasma (Cp)", "setting": "[2]; iv, 10 mg/kg", "value": 20.9, "unit": "ng eq./mL"}, {"measurement": "Blood concentration of radioactivity/plasma concentration of radioactivity (RB)", "setting": "[2]; po, 1 mg/kg", "value": 4.55}, {"measurement": "Distribution to blood cells (T)", "setting": "[2]; po, 1 mg/kg", "value": 86.0, "unit": "%"}, {"measurement": "Radioactivity concentration Blood (Cb)", "setting": "[2]; po, 1 mg/kg", "value": 10.0, "unit": "ng eq./mL"}, {"measurement": "Radioactivity concentration Plasma (Cp)", "setting": "[2]; po, 1 mg/kg", "value": 2.2, "unit": "ng eq./mL"}]}
